From publication PMC11842588, “A first-in-class selective inhibitor of ERK1/2 and ERK5 overcomes drug resistance with a single-molecule strategy” (Signal Transduction and Targeted Therapy, 2025)

Legend:
Assay in all cases: Kinase profiling
Type in all cases: biochemical
[1] = biological target: T1, ALK(h) (Homo sapiens, UniProt Q9UM73)
T1 construct: purchased Eurofins Cerep SA (KinaseProfiler)
Procedure: (§1) 380 kinases inhibitory activities of SKLB-D18 were conducted by Eurofins Cerep SA. The result was illustrated by kinase tree (http://www.kinhub.org/kinmap/).

[2] = biological target: T2, AMPKα1(h) (Homo sapiens, UniProt Q13131)
T2 construct: purchased Eurofins Cerep SA (KinaseProfiler)
Procedure: as §1

[3] = biological target: T3, BIKe(h) (Homo sapiens, UniProt Q9NSY1)
T3 construct: purchased Eurofins Cerep SA (KinaseProfiler)
Procedure: as §1

[4] = biological target: T4, BRK(h) (Homo sapiens, UniProt Q13882)
T4 construct: purchased Eurofins Cerep SA (KinaseProfiler)
Procedure: as §1

[5] = biological target: T5, Blk(h) (Homo sapiens, UniProt P51451)
T5 construct: purchased Eurofins Cerep SA (KinaseProfiler)
Procedure: as §1

[6] = biological target: T6, Bmx(h) (Homo sapiens, UniProt P51813)
T6 construct: purchased Eurofins Cerep SA (KinaseProfiler)
Procedure: as §1

[7] = biological target: T7, CDK4/cyclinD3(h) (Homo sapiens, UniProt P11802)
T7 construct: purchased Eurofins Cerep SA (KinaseProfiler)
Procedure: as §1

[8] = biological target: T8, CDKL3(h) (Homo sapiens, UniProt Q8IVW4)
T8 construct: purchased Eurofins Cerep SA (KinaseProfiler)
Procedure: as §1

[9] = biological target: T9, CK1α(h) (Homo sapiens, UniProt P48729)
T9 construct: purchased Eurofins Cerep SA (KinaseProfiler)
Procedure: as §1

[10] = biological target: T10, CK1γ1(h) (Homo sapiens, UniProt Q9HCP0)
T10 construct: purchased Eurofins Cerep SA (KinaseProfiler)
Procedure: as §1

[11] = biological target: T11, CK2α2(h) (Homo sapiens, UniProt P19784)
T11 construct: purchased Eurofins Cerep SA (KinaseProfiler)
Procedure: as §1

[12] = biological target: T12, CaMKIIβ(h) (Homo sapiens, UniProt Q13554)
T12 construct: purchased Eurofins Cerep SA (KinaseProfiler)
Procedure: as §1

[13] = biological target: T13, CaMKIδ(h) (Homo sapiens, UniProt Q8IU85)
T13 construct: purchased Eurofins Cerep SA (KinaseProfiler)
Procedure: as §1

[14] = biological target: T14, DYRK2(h) (Homo sapiens, UniProt Q92630)
T14 construct: purchased Eurofins Cerep SA (KinaseProfiler)
Procedure: as §1

[15] = biological target: T15, FGFR3(h) (Homo sapiens, UniProt P22607)
T15 construct: purchased Eurofins Cerep SA (KinaseProfiler)
Procedure: as §1

[16] = biological target: T16, GRK1(h) (Homo sapiens, UniProt Q15835)
T16 construct: purchased Eurofins Cerep SA (KinaseProfiler)
Procedure: as §1

[17] = biological target: T17, HIPK3(h) (Homo sapiens, UniProt Q9H422)
T17 construct: purchased Eurofins Cerep SA (KinaseProfiler)
Procedure: as §1

[18] = biological target: T18, IRAK4(h) (Homo sapiens, UniProt Q9NWZ3)
T18 construct: purchased Eurofins Cerep SA (KinaseProfiler)
Procedure: as §1

[19] = biological target: T19, LIMK2(h) (Homo sapiens, UniProt P53671)
T19 construct: purchased Eurofins Cerep SA (KinaseProfiler)
Procedure: as §1

[20] = biological target: T20, LOK(h) (Homo sapiens, UniProt O94804)
T20 construct: purchased Eurofins Cerep SA (KinaseProfiler)
Procedure: as §1

[21] = biological target: T21, Lck(h) activated (Homo sapiens, UniProt P06239)
T21 construct: purchased Eurofins Cerep SA (KinaseProfiler)
Procedure: as §1

[22] = biological target: T22, Lyn(h) (Homo sapiens, UniProt P07948)
T22 construct: purchased Eurofins Cerep SA (KinaseProfiler)
Procedure: as §1

[23] = biological target: T23, MAP4K3(h) (Homo sapiens, UniProt Q8IVH8)
T23 construct: purchased Eurofins Cerep SA (KinaseProfiler)
Procedure: as §1

[24] = biological target: T24, MAPK3(h) (Homo sapiens, UniProt P27361)
T24 construct: purchased Eurofins Cerep SA (KinaseProfiler)
Procedure: as §1

[25] = biological target: T25, MARK1(h) (Homo sapiens, UniProt Q9P0L2)
T25 construct: purchased Eurofins Cerep SA (KinaseProfiler)
Procedure: as §1

[26] = biological target: T26, MKK3(h) (Homo sapiens, UniProt P46734)
T26 construct: purchased Eurofins Cerep SA (KinaseProfiler)
Procedure: as §1

[27] = biological target: T27, MuSK(h) (Homo sapiens, UniProt O15146)
T27 construct: purchased Eurofins Cerep SA (KinaseProfiler)
Procedure: as §1

[28] = biological target: T28, NEK2(h) (Homo sapiens, UniProt P51955)
T28 construct: purchased Eurofins Cerep SA (KinaseProfiler)
Procedure: as §1

[29] = biological target: T29, PAK1(h) (Homo sapiens, UniProt Q13153)
T29 construct: purchased Eurofins Cerep SA (KinaseProfiler)
Procedure: as §1

[30] = biological target: T30, PKCα(h) (Homo sapiens, UniProt P17252)
T30 construct: purchased Eurofins Cerep SA (KinaseProfiler)
Procedure: as §1

[31] = biological target: T31, PKCε(h) (Homo sapiens, UniProt Q02156)
T31 construct: purchased Eurofins Cerep SA (KinaseProfiler)
Procedure: as §1

[32] = biological target: T32, PRAK(h) (Homo sapiens, UniProt Q8IW41)
T32 construct: purchased Eurofins Cerep SA (KinaseProfiler)
Procedure: as §1

[33] = biological target: T33, Plk4(h) (Homo sapiens, UniProt O00444)
T33 construct: purchased Eurofins Cerep SA (KinaseProfiler)
Procedure: as §1

[34] = biological target: T34, ROCK-II(h) (Homo sapiens, UniProt O75116)
T34 construct: purchased Eurofins Cerep SA (KinaseProfiler)
Procedure: as §1

[35] = biological target: T35, Rsk2(h) (Homo sapiens, UniProt P51812)
T35 construct: purchased Eurofins Cerep SA (KinaseProfiler)
Procedure: as §1

[36] = biological target: T36, SAPK2b(h) (Homo sapiens, UniProt Q15759)
T36 construct: purchased Eurofins Cerep SA (KinaseProfiler)
Procedure: as §1

[37] = biological target: T37, SIK2(h) (Homo sapiens, UniProt Q9H0K1)
T37 construct: purchased Eurofins Cerep SA (KinaseProfiler)
Procedure: as §1

[38] = biological target: T38, SNRK(h) (Homo sapiens, UniProt Q9NRH2)
T38 construct: purchased Eurofins Cerep SA (KinaseProfiler)
Procedure: as §1

[39] = biological target: T39, SRPK2(h) (Homo sapiens, UniProt P78362)
T39 construct: purchased Eurofins Cerep SA (KinaseProfiler)
Procedure: as §1

[40] = biological target: T40, TAK1(h) (Homo sapiens, UniProt O43318)
T40 construct: purchased Eurofins Cerep SA (KinaseProfiler)
Procedure: as §1

[41] = biological target: T41, ZAK(h) (Homo sapiens, UniProt Q9NYL2)
T41 construct: purchased Eurofins Cerep SA (KinaseProfiler)
Procedure: as §1

T8 sequence (Q8IVW4 whole entry): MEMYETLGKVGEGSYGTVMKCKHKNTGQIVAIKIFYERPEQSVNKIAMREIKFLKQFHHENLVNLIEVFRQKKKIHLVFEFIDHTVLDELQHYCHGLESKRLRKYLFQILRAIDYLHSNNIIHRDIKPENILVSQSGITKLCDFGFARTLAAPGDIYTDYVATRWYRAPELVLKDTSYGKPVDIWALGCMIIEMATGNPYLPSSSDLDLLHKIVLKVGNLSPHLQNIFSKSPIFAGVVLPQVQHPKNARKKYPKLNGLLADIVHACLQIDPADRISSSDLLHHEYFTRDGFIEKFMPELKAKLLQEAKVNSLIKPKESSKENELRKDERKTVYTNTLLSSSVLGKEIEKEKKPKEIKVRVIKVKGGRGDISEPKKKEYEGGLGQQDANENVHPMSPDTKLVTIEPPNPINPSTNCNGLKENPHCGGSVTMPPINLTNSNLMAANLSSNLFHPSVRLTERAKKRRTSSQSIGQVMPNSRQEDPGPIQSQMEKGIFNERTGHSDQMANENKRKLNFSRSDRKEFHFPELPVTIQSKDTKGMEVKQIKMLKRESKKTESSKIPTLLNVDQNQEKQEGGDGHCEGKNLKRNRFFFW
T12 sequence (Q13554 whole entry): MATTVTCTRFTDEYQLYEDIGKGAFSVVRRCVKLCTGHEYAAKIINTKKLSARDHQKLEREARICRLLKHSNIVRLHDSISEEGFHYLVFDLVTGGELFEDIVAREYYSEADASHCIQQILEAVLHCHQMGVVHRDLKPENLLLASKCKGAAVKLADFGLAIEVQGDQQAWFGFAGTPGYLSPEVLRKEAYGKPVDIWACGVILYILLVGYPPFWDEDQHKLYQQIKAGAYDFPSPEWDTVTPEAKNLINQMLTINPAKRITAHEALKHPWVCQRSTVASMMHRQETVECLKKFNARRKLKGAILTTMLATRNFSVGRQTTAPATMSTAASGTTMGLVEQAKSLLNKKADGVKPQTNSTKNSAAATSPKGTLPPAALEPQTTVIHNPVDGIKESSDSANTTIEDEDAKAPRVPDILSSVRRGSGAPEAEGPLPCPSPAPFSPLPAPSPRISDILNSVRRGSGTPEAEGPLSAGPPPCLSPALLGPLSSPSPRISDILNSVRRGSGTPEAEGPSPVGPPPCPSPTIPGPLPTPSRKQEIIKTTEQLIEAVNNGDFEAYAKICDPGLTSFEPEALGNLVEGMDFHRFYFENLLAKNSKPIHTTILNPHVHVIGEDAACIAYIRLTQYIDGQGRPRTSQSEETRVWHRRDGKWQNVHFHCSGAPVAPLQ
T15 sequence (P22607 23-806): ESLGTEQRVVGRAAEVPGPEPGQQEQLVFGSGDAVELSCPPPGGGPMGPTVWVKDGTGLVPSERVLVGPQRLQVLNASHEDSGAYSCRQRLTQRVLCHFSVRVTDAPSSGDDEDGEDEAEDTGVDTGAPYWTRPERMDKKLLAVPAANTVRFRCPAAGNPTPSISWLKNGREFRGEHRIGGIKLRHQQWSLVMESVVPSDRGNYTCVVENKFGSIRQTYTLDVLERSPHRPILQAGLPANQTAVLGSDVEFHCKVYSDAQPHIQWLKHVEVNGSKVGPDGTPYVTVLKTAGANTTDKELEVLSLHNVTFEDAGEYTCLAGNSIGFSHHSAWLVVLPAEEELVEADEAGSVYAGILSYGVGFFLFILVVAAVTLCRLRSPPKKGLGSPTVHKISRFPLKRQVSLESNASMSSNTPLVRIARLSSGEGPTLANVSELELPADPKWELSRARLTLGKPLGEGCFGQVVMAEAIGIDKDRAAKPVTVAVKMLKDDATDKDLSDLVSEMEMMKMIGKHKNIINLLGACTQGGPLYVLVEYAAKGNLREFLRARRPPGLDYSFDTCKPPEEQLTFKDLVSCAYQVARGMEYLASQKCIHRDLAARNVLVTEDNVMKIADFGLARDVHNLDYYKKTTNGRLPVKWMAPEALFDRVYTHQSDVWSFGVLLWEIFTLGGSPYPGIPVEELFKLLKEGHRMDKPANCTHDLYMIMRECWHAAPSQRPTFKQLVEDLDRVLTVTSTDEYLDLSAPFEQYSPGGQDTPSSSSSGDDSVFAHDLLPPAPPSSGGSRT
T32 sequence (Q8IW41 whole entry): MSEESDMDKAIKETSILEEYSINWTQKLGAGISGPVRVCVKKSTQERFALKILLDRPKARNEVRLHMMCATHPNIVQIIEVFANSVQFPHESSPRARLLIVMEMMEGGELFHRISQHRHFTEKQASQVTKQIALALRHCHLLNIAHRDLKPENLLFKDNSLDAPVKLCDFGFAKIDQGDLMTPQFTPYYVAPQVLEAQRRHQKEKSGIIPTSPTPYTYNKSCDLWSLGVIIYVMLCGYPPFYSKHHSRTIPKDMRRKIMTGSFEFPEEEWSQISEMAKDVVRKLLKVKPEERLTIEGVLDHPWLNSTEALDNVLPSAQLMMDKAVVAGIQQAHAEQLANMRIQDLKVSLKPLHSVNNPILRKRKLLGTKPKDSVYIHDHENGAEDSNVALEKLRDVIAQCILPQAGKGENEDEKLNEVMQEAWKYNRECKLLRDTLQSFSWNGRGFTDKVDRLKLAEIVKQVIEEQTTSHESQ
T20 sequence (O94804 whole entry): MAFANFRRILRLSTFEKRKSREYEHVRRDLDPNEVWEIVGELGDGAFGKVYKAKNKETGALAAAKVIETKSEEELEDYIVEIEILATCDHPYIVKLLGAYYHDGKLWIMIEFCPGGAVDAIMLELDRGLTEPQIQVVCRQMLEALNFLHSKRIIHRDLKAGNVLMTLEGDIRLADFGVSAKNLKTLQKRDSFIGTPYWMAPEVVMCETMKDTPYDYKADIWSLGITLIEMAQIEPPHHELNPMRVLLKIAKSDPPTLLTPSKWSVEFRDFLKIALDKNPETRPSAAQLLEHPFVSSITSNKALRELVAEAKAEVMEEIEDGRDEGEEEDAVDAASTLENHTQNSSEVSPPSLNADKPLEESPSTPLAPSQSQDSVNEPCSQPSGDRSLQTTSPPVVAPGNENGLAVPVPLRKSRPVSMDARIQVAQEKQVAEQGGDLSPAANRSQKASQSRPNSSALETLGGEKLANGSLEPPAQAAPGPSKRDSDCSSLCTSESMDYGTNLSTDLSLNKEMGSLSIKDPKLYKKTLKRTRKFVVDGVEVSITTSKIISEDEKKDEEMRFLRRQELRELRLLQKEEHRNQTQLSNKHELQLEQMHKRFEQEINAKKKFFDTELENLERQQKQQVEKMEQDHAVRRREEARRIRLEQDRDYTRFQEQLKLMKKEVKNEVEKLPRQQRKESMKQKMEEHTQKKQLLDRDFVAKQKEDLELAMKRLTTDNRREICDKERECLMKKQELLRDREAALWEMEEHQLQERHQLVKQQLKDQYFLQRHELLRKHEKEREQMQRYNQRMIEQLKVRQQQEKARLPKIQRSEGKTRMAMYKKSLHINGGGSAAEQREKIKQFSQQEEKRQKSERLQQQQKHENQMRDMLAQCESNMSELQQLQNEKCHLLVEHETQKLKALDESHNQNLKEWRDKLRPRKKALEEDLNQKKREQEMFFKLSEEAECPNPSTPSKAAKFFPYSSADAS
T7 sequence (P11802 whole entry): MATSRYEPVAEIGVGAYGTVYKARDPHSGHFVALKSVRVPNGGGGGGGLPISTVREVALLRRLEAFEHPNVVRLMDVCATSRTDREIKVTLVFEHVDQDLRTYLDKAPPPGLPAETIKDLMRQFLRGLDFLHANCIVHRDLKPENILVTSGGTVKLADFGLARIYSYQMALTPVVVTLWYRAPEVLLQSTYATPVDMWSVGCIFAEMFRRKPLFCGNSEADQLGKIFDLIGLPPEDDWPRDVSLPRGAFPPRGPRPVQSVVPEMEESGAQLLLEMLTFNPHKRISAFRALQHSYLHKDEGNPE
T7 sequence (P30281 whole entry partner): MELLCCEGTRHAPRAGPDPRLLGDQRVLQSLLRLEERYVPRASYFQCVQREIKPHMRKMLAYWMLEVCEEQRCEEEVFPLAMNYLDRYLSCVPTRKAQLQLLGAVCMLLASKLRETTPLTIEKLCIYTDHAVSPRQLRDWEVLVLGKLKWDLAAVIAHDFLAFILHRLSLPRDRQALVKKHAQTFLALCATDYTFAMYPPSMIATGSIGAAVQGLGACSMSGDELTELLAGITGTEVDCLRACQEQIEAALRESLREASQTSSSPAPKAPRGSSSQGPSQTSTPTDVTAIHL
T25 sequence (Q9P0L2 whole entry): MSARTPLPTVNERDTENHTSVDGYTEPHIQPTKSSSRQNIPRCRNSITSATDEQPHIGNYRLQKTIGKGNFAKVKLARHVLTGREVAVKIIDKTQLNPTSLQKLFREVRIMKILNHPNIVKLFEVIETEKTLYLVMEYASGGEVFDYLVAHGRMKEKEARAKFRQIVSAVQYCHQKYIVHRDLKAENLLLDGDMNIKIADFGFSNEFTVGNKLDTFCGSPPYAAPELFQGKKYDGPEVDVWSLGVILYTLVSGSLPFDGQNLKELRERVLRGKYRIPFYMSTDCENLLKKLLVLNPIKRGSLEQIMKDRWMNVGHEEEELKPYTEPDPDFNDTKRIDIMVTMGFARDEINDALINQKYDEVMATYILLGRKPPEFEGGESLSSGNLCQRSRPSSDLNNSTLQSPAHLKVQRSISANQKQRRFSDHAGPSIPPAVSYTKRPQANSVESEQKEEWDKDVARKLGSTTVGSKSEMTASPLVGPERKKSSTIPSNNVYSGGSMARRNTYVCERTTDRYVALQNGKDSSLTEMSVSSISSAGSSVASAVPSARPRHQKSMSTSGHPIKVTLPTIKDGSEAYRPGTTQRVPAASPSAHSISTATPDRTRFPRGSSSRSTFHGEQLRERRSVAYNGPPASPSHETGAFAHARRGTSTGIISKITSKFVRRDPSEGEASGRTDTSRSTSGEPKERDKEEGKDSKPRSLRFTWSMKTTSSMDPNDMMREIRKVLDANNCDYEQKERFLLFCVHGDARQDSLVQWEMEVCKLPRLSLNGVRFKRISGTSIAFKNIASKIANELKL

CN(C)Cc1cccc(Nc2ncc(Cl)c(-c3csc(C(=O)NN4CCOCC4)c3)n2)c1 [SKLB-D18, 4-(5-chloro-2-((3-((dimethylamino)methyl)phenyl)amino)pyrimidin-4-yl)-N-morpholinothiophene-2-carboxamide]
inhibition at 1 µM [1]: 13%
inhibition at 1 µM [2]: 61%
inhibition at 1 µM [3]: 52%
inhibition at 1 µM [4]: 32%
inhibition at 1 µM [5]: -5%
inhibition at 1 µM [6]: 46%
inhibition at 1 µM [7]: 60%
inhibition at 1 µM [8]: 54%
inhibition at 1 µM [9]: 8%
inhibition at 1 µM [10]: 16%
inhibition at 1 µM [11]: 65%
inhibition at 1 µM [12]: 44%
inhibition at 1 µM [13]: 47%
inhibition at 1 µM [14]: 41%
inhibition at 1 µM [15]: 55%
inhibition at 1 µM [16]: 9%
inhibition at 1 µM [17]: 64%
inhibition at 1 µM [18]: 47%
inhibition at 1 µM [19]: 17%
inhibition at 1 µM [20]: 2%
inhibition at 1 µM [21]: 68%
inhibition at 1 µM [22]: 60%
inhibition at 1 µM [23]: 60%
inhibition at 1 µM [24]: 96%
inhibition at 1 µM [25]: 64%
inhibition at 1 µM [26]: 4%
inhibition at 1 µM [27]: 20%
inhibition at 1 µM [28]: 42%
inhibition at 1 µM [29]: 45%
inhibition at 1 µM [30]: 21%
inhibition at 1 µM [31]: 14%
inhibition at 1 µM [32]: -2%
inhibition at 1 µM [33]: 38%
inhibition at 1 µM [34]: 34%
inhibition at 1 µM [35]: 41%
inhibition at 1 µM [36]: 4%
inhibition at 1 µM [37]: 67%
inhibition at 1 µM [38]: -14%
inhibition at 1 µM [39]: 9%
inhibition at 1 µM [40]: 64%
inhibition at 1 µM [41]: 5%
